Assay results from patent US20160002643A1, “Compositions And Methods To Enhance Protein Expression” (priority 2014, published 2016).
Entries after “also recorded” stand apart in the source; their conditions may differ.

How the values were obtained:
[1] = test system: induction of co-transfected genes by pLKO.1c; assay: Drug inhibition experiments on pLKO.1c induction of co-transfected genes; type: cell-based; details: p38 inhibitor 10 μM 24 hr; Mnk1 inhibitor 2 nM 40 hr
Description: The Mnk1 inhibitor (Calbiochem) was added at 2 nM for 40 hr, and the p38 inhibitor (SB203580) was added at 10 μM for 24 hr prior to harvesting transfections.

[2] = test system: EGFP, ER-mCherry or mCherry expression in 293 cells; assay: FACS / fluorescence analysis of co-transfected EGFP and mCherry expression; type: cell-based, human; details: 2.5 ng EGFP expression plasmid
Description: The average mean fluorescence and range of duplicate transfections of 5 μg of pLKO.1c or pLKΔHP plasmids into 293 cells was determined in the presence or absence of the indicated amount of pEGFP vector relative to the pcDNA control. […]
Calcium phosphate transfection of 293 cells was performed in triplicate with 5 μg of the pTRE plasmids and 1 μg of the transactivator as indicated. All cells were incubated with 300 ng/ml DOX at 7 hr post-transfection prior to FACS analysis at 48 hr. The mean and standard deviations of triplicates are reported relative to pTRE3G-BI-mCherry in the absence of transactivator. All values (lanes 2, 3, and 4) were highly statistically significant (p<0.0001) relative to values from lane 1 as was lane 3 relative to 4.
Transfections were performed as in panel B except that samples without the pTRE plasmids were included (pcDNA3). All transfections contained 2.5 ng of the EGFP expression plasmid. Without the transactivator, pTRE-Psi-sh elevated GFP expression ˜10-fold compared to pcDNA3 (p<0.0001; lanes 5 and 1) and ˜6-fold compared to pTRE-3G-BI-mCherry (p<0.0001; lanes 5 and 3). […]

Row | Molecule | effect of inhibitor on induction of co-transfected genes by pLKO.1c [1] | super-induction of co-transfected GFP/EGFP (in words) [2]
1 | Nc1ncnc2n[nH]c(Nc3ccc(F)cc3)c12 [CGP57380] | no observable effect | –
2 | C[S+]([O-])c1ccc(-c2nc(-c3ccncc3)c(-c3ccc(F)cc3)[nH]2)cc1 (stereo not drawn) [SB203580] | no effect | –
3 | pMT2: adenoviral gene containing plasmid on a pBR322 backbone expressing Ad VA-RNA I, SEQ ID NO:07 | – | showed super-induction of GFP; also recorded: comparable to super-induction of GFP by pLKO.1e
